Reference: patent publication US5466698A, “Substituted tetrahydrophyridines and hydroxypiperidines as central nervous system agents” (Warner-Lambert Company, priority 1993, dated 1995)
Read-outs that look alike come from different tables or passages of the source.

Legend:
[1] = molecular target: [^3 H]Spiroperidol Binding (Rattus norvegicus, UniProt P61169); assay: Inhibition of [^3 H]Spiroperidol Binding, receptor assay
[2] = tested on: Brain Dopamine Synthesis in Rats; assay: % Reversal of Brain Dopamine Synthesis in Rats; format: in vivo; details: Rattus norvegicus, IP
[3] = tested on: Locomotor Activity in Mice; assay: Inhibition of Locomotor Activity in Mice; format: in vivo; details: Mus musculus, IP

Chain of [^3 H]Spiroperidol Binding (P61169 whole entry): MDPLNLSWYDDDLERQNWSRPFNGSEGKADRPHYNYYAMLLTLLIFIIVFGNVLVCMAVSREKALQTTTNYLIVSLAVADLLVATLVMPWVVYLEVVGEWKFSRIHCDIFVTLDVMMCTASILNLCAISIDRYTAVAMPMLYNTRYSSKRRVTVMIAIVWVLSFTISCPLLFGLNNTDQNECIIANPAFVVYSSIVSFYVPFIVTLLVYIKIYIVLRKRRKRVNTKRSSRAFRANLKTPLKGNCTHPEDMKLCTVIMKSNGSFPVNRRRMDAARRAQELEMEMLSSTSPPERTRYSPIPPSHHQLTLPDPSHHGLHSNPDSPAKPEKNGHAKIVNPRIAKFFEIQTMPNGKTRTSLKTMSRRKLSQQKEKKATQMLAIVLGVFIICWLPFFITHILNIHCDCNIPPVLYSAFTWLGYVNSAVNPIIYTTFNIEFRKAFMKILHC

Compound | IC50 [1] [nM] | inhibition in vivo at 10 mg/kg [2] [%] | ED50 [3] [mg/kg] | IC50 ([1]; read-out: Inhibition of [^3 H]Spiroperidol Binding IC50, [^3 H]spiroperidol radioligand) [nM]
C(#Cc1cnc2ccccc2c1)CCN1CC=C(c2ccccc2)CC1 [Example 1, 3-[4-(3,6-Dihydro-4-phenyl-1(2H)-pyridinyl)-1-butynyl]quinoline] | 41 | 28 |  | 
C(#Cc1cncc2ccccc12)CCN1CC=C(c2ccccc2)CC1 [Example 2, 4-[4-(3,6-Dihydro-4-phenyl-1(2H)-pyridinyl)-1-butynyl]isoquinoline] | 101 | 32 | 2.1 | 
C(#Cc1cccnc1)CCN1CC=C(c2cccs2)CC1 [Example 3, 3-[4-[3,6-Dihydro-4-(2-thienyl)-1(2H)-pyridinyl]-1-butynyl]pyridine] | 354 | 53 | 0.54 | 
C(#Cc1cccnc1)CCN1CC=C(c2ccccc2)CC1 [Example 4, 3-[4-(3,6-Dihydro-4-phenyl-1(2H)-pyridinyl)-1-butynyl]pyridine] | 50 | 79 | 0.07 | 
C(#Cc1cnc2ccccc2c1)CCCN1CC=C(c2ccccc2)CC1 [Example 6, 3-[5-(3,6-Dihydro-4-phenyl-1(2H)-pyridinyl)-1-pentynyl]quinoline] |  |  | 3.6 | 
C(#Cc1cccnc1)CCCN1CC=C(c2ccccc2)CC1 [Example 7, 3-[5-(3,6-Dihydro-4-phenyl-1(2H)-pyridinyl)-1-pentynyl]pyridine] | 77.2 | 48 | 0.72 | 
C(#Cc1cccnc1)CCCN1CC=C(c2cccs2)CC1 [Example 8, 3-[5-[3,6-Dihydro-4-(2-thienyl)-1(2H)-pyridinyl]-1-pentynyl]pyridine] | 209 |  | 2.7 | 
O=[N+]([O-])c1ccc(C#CCCN2CC=C(c3ccccc3)CC2)nc1 [Example 9, 1,2,3,6-Tetrahydro-1-[4-(5-nitro-2-pyridinyl)-3-butynyl]-4-phenylpyridine] | 229 |  | 6.9 | 
O=[N+]([O-])c1ccc(C#CCCN2CC=C(c3ccccc3)CC2)cc1 [Example 10, 1,2,3,6-Tetrahydro-1-[4-(4-nitrophenyl)-3-butynyl]-4-phenylpyridine] | 394 | 42 | 2.6 | 
C(#Cc1ccncc1)CCN1CC=C(c2ccccc2)CC1 [Example 11, 4-[4-(3,6-Dihydro-4-phenyl-1(2H)-pyridinyl)-1-butynyl]pyridine] | 43.4 | 79 | 0.1 | 
Nc1ccc(C#CCCN2CC=C(c3cccs3)CC2)nc1 [Example 12, 6-[4-[3,6-Dihydro-4-(2-thienyl)-1(2H)-pyridinyl]-1-butynyl]-3-pyridinamine] | 321 | 46 | 0.36 | 
CN(C)c1ccc(C#CCCN2CC=C(c3ccccc3)CC2)nc1 [Example 13, 6-[4-(3,6-Dihydro-4-phenyl-1(2H)-pyridinyl)-1-butynyl]-N,N-dimethyl-3-pyridinamine] | 192 | 49 | 0.28 | 
C(#Cc1ccccn1)CCN1CC=C(c2ccccc2)CC1 [Example 14, 1,2,3,6-Tetrahydro-4-phenyl-1-[4-(2-pyridinyl)-3-butynyl]pyridine] | 189 | 23 | 2.1 | 
C(#Cc1ccc2[nH]ccc2c1)CCN1CC=C(c2ccccc2)CC1 [Example 15, 5-[4-(3,6-Dihydro-4-phenyl-1(2H)-pyridinyl)-1-butynyl]-1H-indole] | 78 |  | 1 | 
C(#Cc1cccs1)CCN1CC=C(c2ccccc2)CC1 [Example 16, 1,2,3,6-Tetrahydro-4-phenyl-1-[4-(2-thienyl)-3-butynyl]pyridine] | 115 |  | 7.6 | 
Nc1ccc(C#CCCN2CC=C(c3ccc(F)cc3)CC2)cn1 [Example 17, 5-[4-[4-(4-Fluorophenyl)-3,6-dihydro-1(2H)-pyridinyl]-1-butynyl]-2-pyridinamine] | 376 | 40 | 1.2 | 
Nc1ccc(C#CCCN2CC=C(c3ccccc3)CC2)nc1 [Example 19, 6-[4-(3,6-Dihydro-4-phenyl-1(2H)-pyridinyl)-1-butynyl]-3-pyridinamine] | 85 | 59 | 0.15 | 
Nc1ccc(C#CCCN2CC=C(c3ccccc3)CC2)cc1 [Example 20, 4-[4-(3,6-Dihydro-4-phenyl-1(2H)-pyridinyl)-1-butynyl]benzenamine] | 431 | 51 | 0.36 | 
Nc1ccc(C#CCCN2CC=C(c3ccccc3)CC2)cn1 [Example 21, 5-[4-(3,6-Dihydro-4-phenyl-1(2H)-pyridinyl)-1-butynyl]-2-pyridinamine] | 25 | 65 | 0.07 | 
CC(=O)Nc1ccc(C#CCCN2CC=C(c3ccccc3)CC2)nc1 [Example 22, N-[6-[4-(3,6-Dihydro-4-phenyl-1(2H)-pyridinyl)-1-butynyl]-3-pyridinyl]acetamide] | 70 | 5 | 0.07 | 
O=C(Nc1ccc(C#CCCN2CC=C(c3ccccc3)CC2)nc1)c1cccs1 [Example 23, N-[6-[4-(3,6-Dihydro-4-phenyl-1(2H)-pyridinyl)-1-butynyl]-3-pyridinyl]-2-thiophenecarboxamide] | 1090 | 0 | 1.5 | 
CC(=O)Nc1ccc(C#CCCN2CC=C(c3ccccc3)CC2)cc1 [Example 24, N-[4-[4-(3,6-Dihydro-4-phenyl-1(2H)-pyridinyl)-1-butynyl]phenyl]acetamide] | 50 |  | 0.23 | 
CC(=O)Nc1ccc(C#CCCN2CC=C(c3ccccc3)CC2)cn1 [Example 25, N-[5-[4-(3,6-Dihydro-4-phenyl-1(2H)-pyridinyl)-1-butynyl]-2-pyridinyl]acetamide] |  |  | 0.16 | 
CNc1ccc(C#CCCN2CC=C(c3ccccc3)CC2)nc1 [Example 26, 6-[4-(3,6-Dihydro-4-phenyl-1(2H)-pyridinyl)-1-butynyl]-N-methyl-3-pyridinamine] | 138 | 0 | 0.22 | 
CNc1ccc(C#CCCN2CC=C(c3ccccc3)CC2)cc1 [Example 27, 4-[4-(3,6-Dihydro-4-phenyl-1(2H)-pyridinyl)-1-butynyl]-N-methylbenzenamine] | 129 | 45 | 0.56 | 
CNc1ccc(C#CCCN2CC=C(c3ccc(F)cc3)CC2)cn1 [Example 28, 5-[4-[4-(9-Fluorophenyl)-3,6-dihydro-1(2H)-pyridinyl]-1-butynyl]-N-methyl-2-pyridinamine] |  | 57 | 0.6 | 1270
CNc1ccc(C#CCCN2CC=C(c3ccccc3)CC2)cn1 [Example 29, 5-[4-(3,6-Dihydro-4-phenyl-1(2H)-pyridinyl)-1-butynyl]-N-methyl-2-pyridinamine] | 77 | 42 | 6.1 | 
CCCNc1ccc(C#CCCN2CC=C(c3ccccc3)CC2)nc1 [Example 30, 6-[4-(3,6-Dihydro-4-phenyl-1(2H)-pyridinyl)-1-butynyl]-N-propyl-3-pyridinamine] | 248 |  | 0.31 | 
CS(=O)(=O)N(c1ccc(C#CCCN2CC=C(c3ccccc3)CC2)nc1)S(C)(=O)=O [Example 31, N-(Methylsulfonyl)-N-[6-[4-(3,6-dihydro-4-phenyl-1(2H)-pyridinyl)-1-butynyl]-3-pyridinyl]methanesulfonamide] | 94 | 0 | 0.53 | 
CS(=O)(=O)Nc1ccc(C#CCCN2CC=C(c3ccccc3)CC2)nc1 [Example 32, N-[6-[4-(3,6-Dihydro-4-phenyl-1(2H)-pyridinyl)-1-butynyl]-3-pyridinyl]methanesulfonamide] | 64 |  | 1.1 | 
